Data reported in the NIST ThermoML archive (doi:10.1021/je8001255).
± gives the expanded uncertainty stated by the source.

Experiment: an = ratio of the nth substance listed, in mol/kg
Details: 100 kPa, Liquid; for electrical conductivity: Alternating current cell with electrodes

O=S(=O)([O-])[O-].[Zn+2] [zinc sulfate] + O
electrical conductivity (278.15 K, a1 = 0.00628): 0.0627 ± 0.0063 S/m | electrical conductivity (278.15 K, a1 = 0.02608): 0.204 ± 0.02 S/m | electrical conductivity (278.15 K, a1 = 0.05064): 0.333 ± 0.033 S/m | electrical conductivity (278.15 K, a1 = 0.1023): 0.581 ± 0.058 S/m | electrical conductivity (278.15 K, a1 = 0.2077): 1.02 ± 0.1 S/m | electrical conductivity (278.15 K, a1 = 0.4748): 1.92 ± 0.19 S/m | electrical conductivity (278.15 K, a1 = 0.7453): 2.62 ± 0.26 S/m | electrical conductivity (278.15 K, a1 = 0.9563): 3.01 ± 0.3 S/m | electrical conductivity (278.15 K, a1 = 1.191): 3.27 ± 0.33 S/m | electrical conductivity (278.15 K, a1 = 1.298): 3.34 ± 0.33 S/m | electrical conductivity (278.15 K, a1 = 1.489): 3.32 ± 0.33 S/m | electrical conductivity (278.15 K, a1 = 1.623): 3.22 ± 0.32 S/m | electrical conductivity (278.15 K, a1 = 1.826): 2.96 ± 0.3 S/m | electrical conductivity (283.15 K, a1 = 0.00628): 0.072 ± 0.0072 S/m | electrical conductivity (283.15 K, a1 = 0.02608): 0.233 ± 0.023 S/m | electrical conductivity (283.15 K, a1 = 0.05064): 0.382 ± 0.038 S/m | electrical conductivity (283.15 K, a1 = 0.1023): 0.666 ± 0.067 S/m | electrical conductivity (283.15 K, a1 = 0.2077): 1.17 ± 0.12 S/m | electrical conductivity (283.15 K, a1 = 0.4748): 2.2 ± 0.22 S/m | electrical conductivity (283.15 K, a1 = 0.7453): 3 ± 0.3 S/m | electrical conductivity (283.15 K, a1 = 0.9563): 3.46 ± 0.35 S/m | electrical conductivity (283.15 K, a1 = 1.191): 3.78 ± 0.38 S/m | electrical conductivity (283.15 K, a1 = 1.298): 3.87 ± 0.39 S/m | electrical conductivity (283.15 K, a1 = 1.489): 3.87 ± 0.39 S/m | electrical conductivity (283.15 K, a1 = 1.623): 3.77 ± 0.38 S/m | electrical conductivity (283.15 K, a1 = 1.826): 3.49 ± 0.35 S/m | electrical conductivity (288.15 K, a1 = 0.00628): 0.0816 ± 0.0082 S/m | electrical conductivity (288.15 K, a1 = 0.02608): 0.264 ± 0.026 S/m | electrical conductivity (288.15 K, a1 = 0.05064): 0.432 ± 0.043 S/m | electrical conductivity (288.15 K, a1 = 0.1023): 0.753 ± 0.075 S/m | electrical conductivity (288.15 K, a1 = 0.2077): 1.32 ± 0.13 S/m | electrical conductivity (288.15 K, a1 = 0.4748): 2.49 ± 0.25 S/m | electrical conductivity (288.15 K, a1 = 0.7453): 3.4 ± 0.34 S/m | electrical conductivity (288.15 K, a1 = 0.9563): 3.85 ± 0.38 S/m | electrical conductivity (288.15 K, a1 = 1.191): 4.31 ± 0.43 S/m | electrical conductivity (288.15 K, a1 = 1.298): 4.42 ± 0.44 S/m | electrical conductivity (288.15 K, a1 = 1.489): 4.45 ± 0.44 S/m | electrical conductivity (288.15 K, a1 = 1.623): 4.35 ± 0.43 S/m | electrical conductivity (288.15 K, a1 = 1.826): 4.07 ± 0.41 S/m | electrical conductivity (293.15 K, a1 = 0.00628): 0.0916 ± 0.0092 S/m | electrical conductivity (293.15 K, a1 = 0.02608): 0.295 ± 0.03 S/m | electrical conductivity (293.15 K, a1 = 0.05064): 0.483 ± 0.048 S/m | electrical conductivity (293.15 K, a1 = 0.1023): 0.841 ± 0.084 S/m | electrical conductivity (293.15 K, a1 = 0.2077): 1.48 ± 0.15 S/m | electrical conductivity (293.15 K, a1 = 0.4748): 2.79 ± 0.28 S/m | electrical conductivity (293.15 K, a1 = 0.7453): 3.81 ± 0.38 S/m | electrical conductivity (293.15 K, a1 = 0.9563): 4.41 ± 0.44 S/m | electrical conductivity (293.15 K, a1 = 1.191): 4.86 ± 0.49 S/m | electrical conductivity (293.15 K, a1 = 1.298): 5 ± 0.5 S/m | electrical conductivity (293.15 K, a1 = 1.489): 5.05 ± 0.51 S/m | electrical conductivity (293.15 K, a1 = 1.623): 4.96 ± 0.5 S/m | electrical conductivity (293.15 K, a1 = 1.826): 4.68 ± 0.47 S/m | electrical conductivity (298.15 K, a1 = 0.00628): 0.102 ± 0.01 S/m | electrical conductivity (298.15 K, a1 = 0.02608): 0.327 ± 0.033 S/m | electrical conductivity (298.15 K, a1 = 0.05064): 0.534 ± 0.053 S/m | electrical conductivity (298.15 K, a1 = 0.1023): 0.931 ± 0.093 S/m | electrical conductivity (298.15 K, a1 = 0.2077): 1.63 ± 0.16 S/m | electrical conductivity (298.15 K, a1 = 0.4748): 3.09 ± 0.31 S/m | electrical conductivity (298.15 K, a1 = 0.7453): 4.23 ± 0.42 S/m | electrical conductivity (298.15 K, a1 = 0.9563): 4.91 ± 0.49 S/m | electrical conductivity (298.15 K, a1 = 1.191): 5.42 ± 0.54 S/m | electrical conductivity (298.15 K, a1 = 1.298): 5.59 ± 0.56 S/m | electrical conductivity (298.15 K, a1 = 1.489): 5.68 ± 0.57 S/m | electrical conductivity (298.15 K, a1 = 1.623): 5.6 ± 0.56 S/m | electrical conductivity (298.15 K, a1 = 1.826): 5.32 ± 0.53 S/m | mass density (298.15 K, a1 = 0.00628): 998.09 ± 2.2 kg/m3 | mass density (298.15 K, a1 = 0.02608): 1001.41 ± 2.2 kg/m3 | mass density (298.15 K, a1 = 0.05064): 1005.55 ± 2.2 kg/m3 | mass density (298.15 K, a1 = 0.1023): 1014.14 ± 2.2 kg/m3 | mass density (298.15 K, a1 = 0.2077): 1031.96 ± 2.4 kg/m3 | mass density (298.15 K, a1 = 0.4748): 1078.96 ± 2.6 kg/m3 | mass density (298.15 K, a1 = 0.7453): 1129.79 ± 3 kg/m3 | mass density (298.15 K, a1 = 0.9563): 1171.99 ± 3.2 kg/m3 | mass density (298.15 K, a1 = 1.191): 1221.75 ± 3.6 kg/m3 | mass density (298.15 K, a1 = 1.298): 1250.72 ± 3.8 kg/m3 | mass density (298.15 K, a1 = 1.489): 1293.66 ± 4.1 kg/m3 | mass density (298.15 K, a1 = 1.623): 1326.7 ± 4.3 kg/m3 | mass density (298.15 K, a1 = 1.826): 1377.89 ± 4.7 kg/m3 | electrical conductivity (303.15 K, a1 = 0.00628): 0.112 ± 0.011 S/m | electrical conductivity (303.15 K, a1 = 0.02608): 0.359 ± 0.036 S/m | electrical conductivity (303.15 K, a1 = 0.05064): 0.585 ± 0.059 S/m | electrical conductivity (303.15 K, a1 = 0.1023): 1.02 ± 0.1 S/m | electrical conductivity (303.15 K, a1 = 0.2077): 1.79 ± 0.18 S/m | electrical conductivity (303.15 K, a1 = 0.4748): 3.38 ± 0.34 S/m | electrical conductivity (303.15 K, a1 = 0.7453): 4.65 ± 0.47 S/m | electrical conductivity (303.15 K, a1 = 0.9563): 5.41 ± 0.54 S/m | electrical conductivity (303.15 K, a1 = 1.191): 6 ± 0.6 S/m | electrical conductivity (303.15 K, a1 = 1.298): 6.19 ± 0.62 S/m | electrical conductivity (303.15 K, a1 = 1.489): 6.32 ± 0.63 S/m | electrical conductivity (303.15 K, a1 = 1.623): 6.25 ± 0.63 S/m | electrical conductivity (303.15 K, a1 = 1.826): 5.99 ± 0.6 S/m | electrical conductivity (308.15 K, a1 = 0.00628): 0.122 ± 0.012 S/m | electrical conductivity (308.15 K, a1 = 0.02608): 0.391 ± 0.039 S/m | electrical conductivity (308.15 K, a1 = 0.05064): 0.638 ± 0.064 S/m | electrical conductivity (308.15 K, a1 = 0.1023): 1.11 ± 0.11 S/m | electrical conductivity (308.15 K, a1 = 0.2077): 1.94 ± 0.19 S/m | electrical conductivity (308.15 K, a1 = 0.4748): 3.68 ± 0.37 S/m | electrical conductivity (308.15 K, a1 = 0.7453): 5.07 ± 0.51 S/m | electrical conductivity (308.15 K, a1 = 0.9563): 5.91 ± 0.59 S/m | electrical conductivity (308.15 K, a1 = 1.191): 6.57 ± 0.66 S/m | electrical conductivity (308.15 K, a1 = 1.298): 6.8 ± 0.68 S/m | electrical conductivity (308.15 K, a1 = 1.489): 6.97 ± 0.7 S/m | electrical conductivity (308.15 K, a1 = 1.623): 6.92 ± 0.69 S/m | electrical conductivity (308.15 K, a1 = 1.826): 6.67 ± 0.67 S/m
